In patent US5120841A, “Cephalosporin ester derivatives” (Takeda Chemical Industries, Ltd., priority 1983, dated 1992):
Where a name gives a salt, the structure may show the parent alone.

Tests used:
[1] = oral administration to mice: plasma level of non-ester compound (compound [II]), AUC and bioavailability; type: in vivo; details: compound [II] in plasma, 100 mg/kg (in terms of compound [II]), zero to 2 hours
[2] = tested on: Staphylococcus aureus; details: gram-positive bacteria, Antimicrobial Agent and Chemotherapy 14, 557-568 (1978); cited from earlier work
[3] = tested on: proteus morganii; details: gram-negative bacteria, Antimicrobial Agent and Chemotherapy 14, 557-568 (1978); cited from earlier work
[4] = tested on: Klebsiella pneumoniae; details: gram-negative bacteria, Antimicrobial Agent and Chemotherapy 14, 557-568 (1978); cited from earlier work
[5] = mouse, in vivo, sc, 120 min
Procedure: At 0.25, 0.5, 1.0 and 2.0 hours after administration, the concentration of compound [II] in plasma of the mouse is measured by the cup method using Proteus mirabilis Eb 313 as the test organism and the area under plasma concentration-time curve from zero to 2 hours (AUC) is calculated.
The compound [II ] was subcutaneously applied and AUC was calculated in the same manner as above.

[6] = tested on: Proteus mirabilis; details: gram-negative bacteria, Antimicrobial Agent and Chemotherapy 14, 557-568 (1978); cited from earlier work
[7] = tested on: Proteus vulgaris; details: gram-negative bacteria, Antimicrobial Agent and Chemotherapy 14, 557-568 (1978); cited from earlier work
[8] = tested on: Escherichia coli; details: gram-negative bacteria, Antimicrobial Agent and Chemotherapy 14, 557-568 (1978); cited from earlier work

Row | Compound | AUC [1] [ng·h/mL] | further results
1 | CCOC(=O)OC(C)OC(=O)C1=C(CSc2nnnn2CCN(C)C)CS[C@@H]2[C@H](NC(=O)Cc3csc(N)n3)C(=O)N12 (stereo partly drawn) [A, 1-(ethoxycarbonyloxy)ethyl 78-[2-(2-aminothiazol-4-yl)acetamido]-3-[[[1-(2-dimethylaminoethyl)-1H-tetrazol-5-yl]-thio]methyl]ceph-3-em-4-carboxylate, reference compound] | 9280 | –
2 | CN(C)CCn1nnnc1SCC1=C(C(=O)OCOC(=O)OC2CCCCC2)N2C(=O)[C@@H](NC(=O)Cc3csc(N)n3)[C@H]2SC1 [Example 1-1, Cyclohexyloxycarbonyloxy 7β-[2-Aminothiazol-4-yl)Acetamido]-3-[[[1-(2-Dimethylaminoethyl)-1H-Tetrazol-5-yl]Thio]Methyl]Ceph-3-Em-4-Carboxylate Dihydrochloride] | 30000 | –
3 | CN(C)CCn1nnnc1SCC1=C(C(=O)OCOC(=O)OC2CCCCCCCCCCC2)N2C(=O)[C@@H](NC(=O)Cc3csc(N)n3)[C@H]2SC1 [Example 1-5] | 33100 | –
4 | CC(C)[C@@H]1CC[C@@H](C)C[C@H]1OC(=O)OCOC(=O)C1=C(CSc2nnnn2CCN(C)C)CS[C@@H]2[C@H](NC(=O)Cc3csc(N)n3)C(=O)N12 [Example 1-6] | 29400 | –
5 | CC(OC(=O)OC1CCCCC1)OC(=O)C1=C(CSc2nnnn2CCN(C)C)CS[C@@H]2[C@H](NC(=O)Cc3csc(N)n3)C(=O)N12.Cl.Cl (stereo partly drawn) [Example 2-1, 1-(Cyclohexyloxycarbonyloxy)ethyl 7β-[2-(2-aminothiazol-4-yl)acetamido]-3-[[[1-(2-dimethylaminoethyl)-1H-tetrazol-5-yl]thio]methyl]ceph-3-em-4-carboxylate dihydrochloride] | 30000 | –
6 | CC1CCCC(OC(=O)OC(C)OC(=O)C2=C(CSc3nnnn3CCN(C)C)CS[C@@H]3[C@H](NC(=O)Cc4csc(N)n4)C(=O)N23)C1 (stereo partly drawn) [Example 2-10] | 30100 | –
7 | CC(OC(=O)OC1CCCCC1C)OC(=O)C1=C(CSc2nnnn2CCN(C)C)CS[C@@H]2[C@H](NC(=O)Cc3csc(N)n3)C(=O)N12 (stereo partly drawn) [Example 2-11] | 35400 | –
8 | CC(OC(=O)OC1CCCCC1C)OC(=O)C1=C(CSc2nnnn2CCN(C)C)CSC2C(NC(=O)Cc3csc(N)n3)C(=O)N12 (stereo not drawn) [Example 2-12] | – | AUC ([1]; 100 mg/kg): 35500 ng·h/mL
9 | CC(OC(=O)OC1CCCCC1C)OC(=O)C1=C(CSc2nnnn2CCN(C)C)CSC2C(NC(=O)Cc3csc(N)n3)C(=O)N12 (stereo not drawn) [Example 2-13] | – | AUC ([1]; 100 mg/kg): 36100 ng·h/mL
10 | CCC(OC(=O)OC1CCCCC1)OC(=O)C1=C(CSc2nnnn2CCN(C)C)CS[C@@H]2[C@H](NC(=O)Cc3csc(N)n3)C(=O)N12 (stereo partly drawn) [Example 5-2] | 31300 | –
11 | CCCC(OC(=O)OC1CCCCC1)OC(=O)C1=C(CSc2nnnn2CCN(C)C)CS[C@@H]2[C@H](NC(=O)Cc3csc(N)n3)C(=O)N12 (stereo partly drawn) [Example 5-7] | 36300 | –
12 | CN(C)CCn1nnnc1SCC1=C(C(=O)O)N2C(=O)[C@@H](NC(=O)Cc3csc(N)n3)[C@H]2SC1 [compound[II], 7β-[2-(2-aminothiazol-4-yl)acetamido]-3-[[[1-(2-dimethylaminoethyl)-1H-tetrazol-5-yl]thio]methyl]-ceph-3-em-4-carboxylic acid] | – | antibacterial activity [2]: potent antibacterial activity; antibacterial activity [3]: potent antibacterial activity; antibacterial activity [4]: potent antibacterial activity; Bioavailability [5]: 100%; antibacterial activity [6]: potent antibacterial activity; antibacterial activity [7]: potent antibacterial activity; antibacterial activity [8]: potent antibacterial activity
